Reference: publication PMC10535762 (2023)

Tested on: poly A–poly U (pApU, ds-RNA) (RNA, polymer) A/U
Assay: fluorimetric titration, Scatchard fit
Conditions: Na+ (sodium cacodylate, I = 0.05 M), pH 7.0, 25 °C, recalculated for fixed n = 0.2 [bound dye]/[polynucleotide], c(nucleobase), per base

Row | SMILES | log Ks (TB-p 5 µM) | log Ks (TB-AA 3 µM)
1 | C#CC[N+](C)(C)c1cc(C)c(B(c2c(C)cccc2C)c2c(C)cc(N(C)C)cc2C)c(C)c1 | 7.1 | –
2 | Cc1cccc(C)c1B(c1c(C)cc(N(C)C)cc1C)c1c(C)cc([N+](C)(C)Cc2cn(CC[C@H](NC(=O)OCC3c4ccccc4-c4ccccc43)C(=O)O)nn2)cc1C | – | 6.0
